According to ChEMBL document CHEMBL1921753, “Semisynthesis and biological evaluation of ganodermanontriol and its stereoisomeric triols” (J Nat Prod, 2011):

Experiments:
Assay type in all cases: functional, cell-based
[1] = system: MCF7; test: Antiproliferative activity against human MCF7 cells after 24 to 72 hrs by MTT assay
[2] = system: MDA-MB-231; test: Antiproliferative activity against human MDA-MB-231 cells after 24 to 72 hrs by MTT assay
[3] = system: MDA-MB-231; test: Antiproliferative activity against human MDA-MB-231 cells after 72 hrs by MTT assay; settings: MDA-MB-231, 72 h
[4] = system: MCF7; test: Antiproliferative activity against human MCF7 cells after 72 hrs by MTT assay; settings: MCF7, 72 h

C[C@H](CC[C@@H](O)[C@](C)(O)CO)[C@H]1CC[C@@]2(C)C3=CC[C@H]4C(C)(C)C(=O)CC[C@]4(C)C3=CC[C@]12C
IC50 [1]: 24.1 µM
IC50 [2]: 11.3 µM

C[C@H](CC[C@@H](O)[C@@](C)(O)CO)[C@H]1CC[C@@]2(C)C3=CC[C@H]4C(C)(C)C(=O)CC[C@]4(C)C3=CC[C@]12C
IC50 [1]: 24.1 µM
IC50 [2]: 33.8 µM

C[C@H](CC[C@H](O)[C@](C)(O)CO)[C@H]1CC[C@@]2(C)C3=CC[C@H]4C(C)(C)C(=O)CC[C@]4(C)C3=CC[C@]12C [GANODERMANONTRIOL]
IC50 [3]: 9.7 µM
IC50 [4]: 5.8 µM

C[C@H](CC[C@H](O)[C@@](C)(O)CO)[C@H]1CC[C@@]2(C)C3=CC[C@H]4C(C)(C)C(=O)CC[C@]4(C)C3=CC[C@]12C
IC50 [1]: 16.3 µM
IC50 [2]: 36.7 µM
